{"source": "patent US10570077B2", "about": "“Substituted (4'-hydroxyphenyl)cyclohexane compounds and uses thereof as selective agonists of the estrogen receptor beta isoform” (Marquette University, priority 2013, dated 2020)", "key": {"[1]": {"biological_target": "T1, ERα (Homo sapiens (Human), UniProt P03372)", "T1 sequence (P03372 whole entry)": "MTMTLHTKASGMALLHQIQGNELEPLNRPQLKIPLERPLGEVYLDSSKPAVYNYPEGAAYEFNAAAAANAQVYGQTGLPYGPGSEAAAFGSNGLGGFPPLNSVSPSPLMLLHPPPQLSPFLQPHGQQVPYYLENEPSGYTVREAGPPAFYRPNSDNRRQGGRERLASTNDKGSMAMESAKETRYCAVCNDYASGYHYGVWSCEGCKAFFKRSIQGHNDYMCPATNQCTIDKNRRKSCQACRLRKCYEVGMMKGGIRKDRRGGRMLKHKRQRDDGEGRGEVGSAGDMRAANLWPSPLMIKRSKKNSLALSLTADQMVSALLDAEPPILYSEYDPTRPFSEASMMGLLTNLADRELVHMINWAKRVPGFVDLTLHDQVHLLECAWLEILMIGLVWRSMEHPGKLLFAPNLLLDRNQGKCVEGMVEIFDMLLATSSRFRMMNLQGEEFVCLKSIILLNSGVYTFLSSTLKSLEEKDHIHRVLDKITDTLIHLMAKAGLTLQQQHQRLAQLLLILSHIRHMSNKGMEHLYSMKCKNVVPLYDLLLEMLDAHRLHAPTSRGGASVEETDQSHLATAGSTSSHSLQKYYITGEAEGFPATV", "assay": "Fluorescence polarization displacement assay (FITC-estradiol tracer)", "type": "binding", "conditions": "for affinity for ERα (qualitative): at concentrations as high as 1 μM; for IC50: read-out: IC50 (ERα affinity, fluorescence polarization displacement assay)", "procedure": "([Tr]) was 10 nM. Sample volume was 150 μL. For each experiment the polarization was calibrated with a sample of FITC set at 20 mP. All proper blanks were used, including water for the FITC samples and blank samples containing only 30 nM ERα protein for the remaining data points."}, "[2]": {"biological_target": "T2, ERβ (Homo sapiens (Human), UniProt Q92731)", "T2 sequence (Q92731 whole entry)": "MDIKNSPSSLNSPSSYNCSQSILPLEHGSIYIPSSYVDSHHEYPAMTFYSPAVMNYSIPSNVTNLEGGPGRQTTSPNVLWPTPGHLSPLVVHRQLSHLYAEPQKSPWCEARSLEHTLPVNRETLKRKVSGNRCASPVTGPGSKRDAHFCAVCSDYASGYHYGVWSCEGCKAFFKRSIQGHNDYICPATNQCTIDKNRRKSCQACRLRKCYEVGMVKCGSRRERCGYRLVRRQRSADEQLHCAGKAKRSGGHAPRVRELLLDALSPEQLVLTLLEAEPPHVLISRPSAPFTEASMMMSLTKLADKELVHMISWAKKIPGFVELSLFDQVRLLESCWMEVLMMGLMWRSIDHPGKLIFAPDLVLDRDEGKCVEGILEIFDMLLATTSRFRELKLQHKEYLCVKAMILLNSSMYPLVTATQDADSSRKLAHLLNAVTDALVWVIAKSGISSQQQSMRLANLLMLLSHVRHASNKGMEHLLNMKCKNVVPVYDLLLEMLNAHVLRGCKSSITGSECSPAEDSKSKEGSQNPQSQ", "assay": "Cell-based ERβ luminescence (luciferase reporter) agonist assay", "from_the_text": "(§1) ERα and ERβ assay kits for cell-based assays (Indigo Biosciences) allowed for investigation into the functional activity (i.e. agonist and/or antagonist) of the ligands identified to bind based on the initial fluorescence polarization displacement assay. Briefly, the cells contained a luciferase reporter gene that was functionally linked to either the ERα or ERβ-responsive promoter. By quantifying the luciferase expression via luminescence, the change in ER activity could be quantified. […] For the agonist assay, the cells were prepared by warming to 37° C., plated, then the chemicals added. […] The cells were then plated, and the chemicals added. All plates were incubated in a cell culture incubator at 37° C. and 5% CO2 for 22 h. Each assay was performed in duplicate. Luminescence was characterized after removal of the incubating media and introduction of the Detection Substrate using a Molecular Devices SpectraMax M5 microplate reader. Data was fitted using GraphPad Prism and fit to the dose-response (four parameter) equation as follows."}, "[3]": {"biological_target": "T2, ERβ", "assay": "Cell-based ERβ luminescence antagonist assay (+E2)", "from_the_text": "as §1"}, "[4]": {"biological_target": "T1, ERα", "assay": "Cell-based ERα luminescence (luciferase reporter) agonist assay", "from_the_text": "as §1"}, "[5]": {"biological_target": "T1, ERα", "assay": "Cell-based ERα luminescence antagonist assay (+E2)", "procedure": "ERα and ERβ assay kits for cell-based assays (Indigo Biosciences) allowed for investigation into the functional activity (i.e. agonist and/or antagonist) of the ligands identified to bind based on the initial fluorescence polarization displacement assay. Briefly, the cells contained a luciferase reporter gene that was functionally linked to either the ERα or ERβ-responsive promoter. By quantifying the luciferase expression via luminescence, the change in ER activity could be quantified. 1-2 mM stocks of the ligands were prepared in d6-DMSO and diluted to final concentrations ranging from 3.2 nM to 2 μM, using the Compound Screening Medium provided in the kit. For the agonist assay, the cells were prepared by warming to 37° C., plated, then the chemicals added. […] The cells were then plated, and the chemicals added. All plates were incubated in a cell culture incubator at 37° C. and 5% CO2 for 22 h. Each assay was performed in duplicate. Luminescence was characterized after removal of the incubating media and introduction of the Detection Substrate using a Molecular Devices SpectraMax M5 microplate reader. Data was fitted using GraphPad Prism and fit to the dose-response (four parameter) equation as follows."}, "[6]": {"biological_target": "T2, ERβ", "assay": "TR-FRET ERβ binding assay", "conditions": "TR-FRET tracer displacement", "procedure": "The binding activity of substituted (4′-hydroxyphenyl)cycloalkane compounds was tested using a TR-FRET ERβ binding assay as illustrated in FIG. 12. […] When the tracer used in the assay is bound, then the ratio is high. When the tracer is displaced, the ratio is low. The following compounds were tested."}, "[7]": {"conditions": "fluorescence polarization displacement"}, "[8]": {"conditions": "160 pM E2 added, read-out: ERβ antagonist IC50"}, "[9]": {"conditions": "normalized, read-out: ERα Normalized Agonist"}, "[10]": {"conditions": "normalized, read-out: ERβ Agonist normalized"}}, "note": "Values joined by “and” are separate entries in the source; they are usually repeats but may differ in a detail not shown here. Equal values may be shown once. Read-outs that look alike come from different tables or passages of the source.", "data": [{"compound": "OC[C@H]1CCC[C@@H](c2ccc(O)cc2)CC1", "note": "(racemic) [Compound 18, cis-1-Hydroxymethyl-4-(4′-hydroxyphenyl)-cycloheptane]", "values": [{"measurement": "Kd", "setting": "[1]; accurate Kd could not be obtained, estimated", "value": "> 1000", "unit": "nM"}, {"measurement": "IC50", "setting": "[2]", "value": "5.4 ± 0.3", "unit": "nM"}, {"measurement": "IC50", "setting": "[3]; read-out: ERβ antagonist IC50", "value": "137 ± 100", "unit": "nM"}]}, {"compound": "OC[C@H]1CCC[C@@H](c2ccc(O)cc2)CC1", "note": "(relative stereo) [Compound 18, cis-1-Hydroxymethyl-4-(4′-hydroxyphenyl)-cycloheptane]", "values": [{"measurement": "affinity for ERα (qualitative)", "setting": "[1]", "value": "significant affinity"}, {"measurement": "ERβ antagonist activity (qualitative)", "setting": "[3]", "value": "ERβ antagonist activity"}]}, {"compound": "C[C@]12CC[C@@H]3c4ccc(O)cc4CC[C@H]3[C@@H]1CC=C2CO", "note": "[Compound 2, 3-Hydroxvestra-1,3,5(10),16-tetraene-17-methanol]", "values": [{"measurement": "ERα agonist activity (qualitative)", "setting": "[4]", "value": "agonist activity"}, {"measurement": "IC50", "setting": "[2]", "value": "6.8 ± 0.2", "unit": "nM"}, {"measurement": "ERβ antagonist activity (qualitative)", "setting": "[3]", "value": "not ERβ antagonists"}]}, {"compound": "CCCOC(=O)C1CC[C@H]2[C@@H]3CCc4cc(O)ccc4[C@H]3CC[C@]12C", "note": "(some centres unmarked) [Compound 4, n-Propyl 3-hydroxyestra-1,3,5(10)-triene-17-carboxylate]", "values": [{"measurement": "Kd", "setting": "[1]; [7]", "value": "320 ± 40", "unit": "nM"}, {"measurement": "IC50", "setting": "[1]", "value": "160 to 320", "unit": "nM"}, {"measurement": "IC50", "setting": "[4]", "value": "92 ± 1", "unit": "nM"}, {"measurement": "IC50", "setting": "[2]", "value": "9.8 ± 2", "unit": "nM"}]}, {"compound": "CC[C@H](C)C1=CC[C@H]2[C@@H]3CCc4cc(O)ccc4[C@H]3CC[C@]12C", "note": "[Compound 7, (20S) 3-Hydroxy-19,24-dinorchola-1,3,5(10),16-tetraene]", "values": [{"measurement": "affinity for ERα (qualitative)", "setting": "[1]", "value": "significant affinity"}, {"measurement": "Kd", "setting": "[1]; [7]", "value": "160 ± 10", "unit": "nM"}, {"measurement": "IC50", "setting": "[1]", "value": "160 to 320", "unit": "nM"}, {"measurement": "IC50", "setting": "[2]", "value": "88 ± 9", "unit": "nM"}, {"measurement": "ERβ antagonist activity (qualitative)", "setting": "[3]", "value": "ERβ antagonist activity"}, {"measurement": "IC50", "setting": "[3]; [8]", "value": "70 ± 15", "unit": "nM"}]}, {"compound": "C[C@@H](CCO)C1=CC[C@H]2[C@@H]3CCc4cc(O)ccc4[C@H]3CC[C@]12C", "note": "[Compound 11, (20S) 3-Hydroxy-19,24-Dinorchola-1,3,5(10),16-tetraen-23-ol]", "values": [{"measurement": "affinity for ERα (qualitative)", "setting": "[1]", "value": "significant affinity"}, {"measurement": "Kd", "setting": "[1]; [7]", "value": "320 ± 40", "unit": "nM"}, {"measurement": "IC50", "setting": "[2]", "value": "108 ± 67", "unit": "nM"}, {"measurement": "ERβ antagonist activity (qualitative)", "setting": "[3]", "value": "ERβ antagonist activity"}, {"measurement": "IC50", "setting": "[3]; [8]", "value": "275 ± 40", "unit": "nM"}]}, {"compound": "CC1C[C@H](C)C2(CC[C@H]3[C@@H]4CCc5cc(O)ccc5[C@H]4CC[C@@]32C)O1", "note": "(some centres unmarked) [Compound 13, 17,23-Epoxy-3-hydroxy-19-norchola-1,3,5(10)-triene]", "values": [{"measurement": "affinity for ERα (qualitative)", "setting": "[1]", "value": "significant affinity"}, {"measurement": "Kd", "setting": "[1]; [7]", "value": "160 ± 10", "unit": "nM"}, {"measurement": "ERα agonist activity (qualitative)", "setting": "[4]", "value": "agonist activity"}, {"measurement": "IC50", "setting": "[4]", "value": "484 ± 1", "unit": "nM"}, {"measurement": "IC50", "setting": "[2]", "value": "111 ± 26", "unit": "nM"}, {"measurement": "ERβ antagonist activity (qualitative)", "setting": "[3]", "value": "not ERβ antagonists"}]}, {"compound": "OCC1CCC[C@@H](c2ccc(O)cc2)CC1", "note": "(some centres unmarked) [ISP-163]", "values": [{"measurement": "EC50", "setting": "[4]; [9]", "value": "10500 ± 200", "unit": "nM"}, {"measurement": "EC50", "setting": "[4]; read-out: ERα Agonist", "value": "> 10000", "unit": "nM"}, {"measurement": "EC50", "setting": "[2]; read-out: ERβ Agonist", "value": "30 nM and 33 nM"}, {"measurement": "IC50", "setting": "[3]", "value": "> 100000", "unit": "nM"}, {"measurement": "IC50", "setting": "[5]", "value": "> 10000", "unit": "nM"}, {"measurement": "IC50", "setting": "[6]", "value": "23.5 ± 8", "unit": "nM"}]}, {"compound": "O/N=C1/CCCC(c2ccc(O)cc2)CC1", "note": "(centres unmarked) [ISP-166]", "values": [{"measurement": "EC50", "setting": "[4]; [9]", "value": "350000 ± 250000", "unit": "nM"}, {"measurement": "EC50", "setting": "[4]; read-out: ERα Agonist", "value": "> 10000", "unit": "nM"}, {"measurement": "EC50", "setting": "[2]; read-out: ERβ Agonist", "value": "731 ± 85", "unit": "nM"}, {"measurement": "IC50", "setting": "[3]", "value": "> 10000", "unit": "nM"}, {"measurement": "IC50", "setting": "[5]", "value": "> 10000", "unit": "nM"}]}, {"compound": "OCC1CCC(c2ccc(O)cc2)CC1", "note": "(centres unmarked) [ISP-171]", "values": [{"measurement": "EC50", "setting": "[4]; [9]", "value": "700000 ± 80000", "unit": "nM"}, {"measurement": "EC50", "setting": "[4]; read-out: ERα Agonist", "value": "> 10000", "unit": "nM"}, {"measurement": "IC50", "setting": "[5]", "value": "> 10000", "unit": "nM"}]}, {"compound": "OCCC1CCCC(c2ccc(O)cc2)CC1", "note": "(centres unmarked) [ISP-248]", "values": [{"measurement": "EC50", "setting": "[4]; [9]", "value": "45000 ± 17000", "unit": "nM"}, {"measurement": "EC50", "setting": "[4]; read-out: ERα Agonist", "value": "> 10000", "unit": "nM"}, {"measurement": "EC50", "setting": "[2]; [10]", "value": 104, "unit": "nM"}, {"measurement": "EC50", "setting": "[2]; read-out: ERβ Agonist", "value": "142 ± 17", "unit": "nM"}, {"measurement": "IC50", "setting": "[3]", "value": "> 10000", "unit": "nM"}, {"measurement": "IC50", "setting": "[5]", "value": "> 10000", "unit": "nM"}, {"measurement": "IC50", "setting": "[6]", "value": "36.8 ± 9.2", "unit": "nM"}]}, {"compound": "OC[C@H]1C=CCC(c2ccc(O)cc2)C=C1", "note": "(some centres unmarked) [RKP-35c]", "values": [{"measurement": "IC50", "setting": "[6]", "value": "378 ± 97", "unit": "nM"}]}, {"compound": "OCC=C1CCC(c2ccc(O)cc2)CC1", "note": "(centres unmarked) [RKP-228]", "values": [{"measurement": "IC50", "setting": "[6]", "value": "521 ± 87", "unit": "nM"}]}, {"compound": "CCC1CCC(c2ccc(O)cc2)CC1", "note": "(centres unmarked) [RKP-231 IF]", "values": [{"measurement": "EC50", "setting": "[4]; [9]", "value": "25000 ± 1300", "unit": "nM"}, {"measurement": "EC50", "setting": "[4]; read-out: ERα Agonist", "value": "> 10000", "unit": "nM"}, {"measurement": "EC50", "setting": "[2]; [10]", "value": 89, "unit": "nM"}, {"measurement": "EC50", "setting": "[2]; read-out: ERβ Agonist", "value": "93 ± 7", "unit": "nM"}, {"measurement": "IC50", "setting": "[3]; read-out: ERβ Antagonist (+E2), +E2", "value": "> 10000", "unit": "nM"}, {"measurement": "IC50", "setting": "[5]; read-out: ERα Antagonist (+E2), +E2", "value": "> 10000", "unit": "nM"}, {"measurement": "IC50", "setting": "[6]", "value": "15.2 ± 1.5", "unit": "nM"}]}]}
